Our source for the Km values is publication PMC5217299, “Triptolide Induces hepatotoxicity via inhibition of CYP450s in Rat liver microsomes” (BMC Complementary and Alternative Medicine, 2017).

This assay concerns T1, CYP3A.
T1 construct: gene Cyp3a1; native isoenzyme mixture in liver microsomes of female SD rats
Description: UHPLC-MS/MS of 1-hydroxymidazolam formation, cocktail probe, Michaelis-Menten fit. The conditions noted are these: liver microsomes of vehicle control rats; cocktail of six substrates together; NADPH regeneration system, pH 7.4, 37 °C. On the technique in general: Liver microsomes are vesicles of endoplasmic reticulum, rich in cytochrome P450 enzymes.

As usually defined, the Km is the concentration of substrate that gives half-maximal velocity. For `Cc1ncc2n1-c1ccc(Cl)cc1C(c1ccccc1F)=NC2` [midazolam], the Km was 1.99 ± 0.267 µM.
